Experimental data from publication PMC5655689, “Therapeutic potential of the phosphino Cu(I) complex (HydroCuP) in the treatment of solid tumors” (Scientific Reports, 2017).
Values joined by “and” are separate entries in the source; they are usually repeats but may differ in a detail not shown here. Equal values may be shown once.

Key:
[1] = test system: LoVo human colon cancer spheroids; test: 3D spheroid cell viability, acid phosphatase (APH) assay, LoVo; assay type: cell-based; conditions: 72 h
Method: In order to improve the predictive capacity of the in vitro assays, we tested HydroCuP activity in two 3D cell cultures of human colon cancer cells, HCT-15 and LoVo. The colon cancer spheroids were treated with HydroCuP for 72 h and the cell viability was assessed by means of the acid phosphatase (APH) assay (Fig. 1, panel A).
Figure 1 Activity in 3D cell cultures. (A) Spheroids (2.5 × 10^3 cells/well) were treated for 72 h with increasing concentrations of tested compounds. The growth inhibitory effect was evaluated by means of APH test. IC50 values were calculated from the dose-survival curves by four parameter logistic model (P < 0.05). SD = standard deviation.
Spheroids were initiated in liquid overlay by seeding 2.5 × 10^3 HCT-15 and LoVo cells/well in phenol red-free RPMI-1640 medium (Sigma Chemical Co.), containing 10% FCS and supplemented with 20% methyl cellulose stock solution. A total of 150 μl of this cell suspension was transferred to each well of a round bottom non-tissue culture treated 96 well-plate (Greiner Bio-one, Kremsmünster, Austria) to allow spheroid formation within 72 h.
A modified APH assay, which is based on quantification of cytosolic acid phosphatase activity, was used for determining cell viability in spheroids. Briefly, the pre-seeded spheroids were treated with fresh medium containing the compound to be studied at the appropriate concentration (range 5–150 μM). Triplicate cultures were established for each treatment. After 72 h, each well was treated with 100 μL of the assay buffer (0.1 M sodium acetate, 0.1% Triton-X-100, supplemented with ImmunoPure p-nitrophenyl phosphate; Sigma Chemical Co.) and, following 3 h of incubation, 10 μL of 1 M NaOH solution were added. The inhibition of the cell growth induced by the tested complexes was detected by measuring the absorbance of each well at 405 nm, using a Bio-Rad 680 microplate reader. Mean absorbance for each drug dose was expressed as a percentage of the control untreated well absorbance (T/C) and plotted vs drug concentration. IC50 values, the drug concentrations that reduce the mean absorbance at 405 nm 50% of those in the untreated control wells, were calculated by four-parameter logistic (4-PL) model. Evaluation was based on means from at least four independent experiments.

[2] = test system: Lewis Lung Carcinoma (LLC); test: In vivo antitumor activity towards Lewis Lung Carcinoma (LLC) implanted i.m. in C57BL mice; design: species or system mouse; conditions: for Average tumor weight (mean ± S.D., g) / Inhibition of tumor growth (%): day 15
Method: The schedule of HydroCuP administration in vivo was initially determined by assessing the total dose that could be injected without undue toxicity for different schedules in nontumor-bearing C57BL mice (data not shown). […] Three schedules of i.p. HydroCuP were administered: early treatment (days 3, 5, 7 and 9 after tumor inoculum), intermediate treatment (days 7–14) and late treatment with split-doses (days 9–11 with a loading dose and days 12–14 with a lower maintenance dose). […] Cisplatin treatment schedule was selected according to standard protocols designed to optimize its efficacy and minimize the occurrence of adverse events. For the early treatment, control mice received the vehicle (0.9% NaCl). HydroCuP was dosed at 25, 35 and 50 mg/kg i.p. on days 3, 5, 7, 9, 11 and 13 after tumor implantation. Cisplatin was dosed at 1.5 mg/kg i.p. on days 3, 5, 7, 9, 11 and 13 after tumor implantation.
The mice were purchased from Charles River, Italy, housed in steel cages under controlled environmental conditions (constant temperature, humidity, and 12 h dark/light cycle), and alimented with commercial standard feed and tap water ad libitum. The LLC cell line was purchased from ECACC, United Kingdom. The LLC cell line was maintained in DMEM (Euroclone, Pero, Italy) supplemented with 10% heat-inactivated foetal bovine serum (Euroclone, Pero, Italy), 10 mM L-glutamine, 100 U/mL penicillin, and 100 µg/mL streptomycin in a 5% CO2 air incubator at 37 °C. The LLC was implanted intramuscularly (i.m.) as a 2 × 10^6 cell inoculum into the right hind leg of 8-week old male and female C57BL mice (24 ± 3 g body weight). The antitumor activity of HydroCuP in LLC tumor model has been investigated by means of different schedules (early treatment, intermediate treatment and late treatment) and compared with that promoted by the reference metallodrug, CDDP. In the early-stage treatment, animals were treated at day 3, 5, 7, 9, 11 and 13 after the tumor cell inoculum with an i.p. injection of HydroCuP (25, 35 and 50 mg/kg), CDDP (1.5 mg/kg) or the vehicle solution (0.9% NaCl).
In the intermediate treatment, animals were treated after 7 days from tumor implantation (visible tumor) with daily i.p. doses of HydroCuP (30 and 50 mg/kg), CDDP (1.5 mg/kg) or the vehicle solution (0.9% NaCl). In the late treatment, animals were treated after 9 days from tumor implantation (palpable tumor) with i.p. doses of HydroCuP (50 mg/kg) from day 9 to day 11 and with i.p. doses of HydroCuP (30 mg/kg) from day 12 to day 14, or with daily doses of CDDP (1.5 mg/kg) or with the vehicle solution (0.9% NaCl). At day 15, animals were sacrificed, the legs were amputated at the proximal end of the femur, and the inhibition of tumor growth was determined according to the difference in weight of the tumor-bearing leg and the healthy leg of the animals expressed as a percentage referring to the control animals. Body weight was measured every 2 days and was taken as a parameter for systemic toxicity.

[3] = design: method as in PMID 21388518, PMID 20486256; conditions: pH 7.4; cited from earlier work
[4] = test system: LoVo colorectal oxaliplatin-sensitive xenograft; test: In vivo activity toward LoVo (OXP-sensitive) tumor xenograft in BALB/c nu/nu mice; conditions: 30 mg/kg daily i.p. from day 14, day 30
Method: (§1) To this aim, we developed the OXP-sensitive and OXP-resistant LoVo xenografts in BALB/c nu/nu mice. […] OXP-sensitive or OXP-resistant LoVo cells (1 × 10^7) were injected in the flank of mice. Once tumor was established (tumor volumes of about 0.4 cm^3, around 14 days after tumor inoculation), mice were randomly divided into six groups (6 animals per group, 8 controls). The HydroCuP-treated groups (6 mice each group) received daily 30 mg/kg by i.p. injection and the OXP-treated group was given 2 mg/kg by i.p. injection. At day 30, animals were sacrificed, and the inhibition of tumor growth was determined (Fig. 4, panel A). Measurements of body weights were recorded from day 14 every 2 days until the experimental endpoint (Fig. 4, panel B).
(§2) (A) LoVo and LoVo-OXP tumor xenografts in 6-week-old BALB/c nu/nu mice by injecting 1 × 10^7 tumor cells subcutaneously on the left dorsal flank. After 24 h from tumor implantation, mice randomly divided into six groups (6 animals per group). Chemotherapy delayed until day 14 (tumor volumes of about 0.4 cm^3). From day 14, HydroCuP dosed daily at 30 mg/kg i.p., OXP dosed daily at 2 mg/kg i.p. At day 30, animals sacrificed, and the inhibition of tumor growth determined by comparing the volume of the control group and the treatment group expressed as percentage referred to the control animals. Error bars indicate the S.D. *p < 0.05, **p < 0.01, with respect to control. […] Body weight was measured every two days and was taken as a parameter of systemic toxicity. The error bars indicate the S.D. **P < 0.01; *P < 0.05.
(§3) LoVo and LoVo-OXP tumor xenografts were established in 6-week-old BALB/c nu/nu mice by injecting 1 × 10^7 tumor cells subcutaneously (100 μL in serum free medium) on the left dorsal flank. After 24 h from tumor implantation, mice were randomly divided into six groups (6 animals per group, 8 controls). Chemotherapy was delayed until the tumor was about 0.4 cm^3 (day 14). From day 14, HydroCuP was dosed daily at 30 mg/kg i.p. whereas OXP was dosed daily at 2 mg/kg i.p. Measurements of body weights and tumor volumes were recorded from day 14 every 2 days until the experimental endpoint. The long axis (L) and the short axis (S) were measured with callipers, and the tumor volume (V) was calculated using the following equation: V = SxSxL/2. At day 30, animals were sacrificed, and the inhibition of tumor growth was determined by comparing the volume of the control group and the treatment group expressed as percentage referred to the control animals.

[5] = test system: LoVo colorectal oxaliplatin-resistant xenograft; test: In vivo activity toward LoVo-OXP (OXP-resistant) tumor xenograft in BALB/c nu/nu mice; conditions: 30 mg/kg daily i.p. from day 14, day 30
Method: as §1, §2, §3

[6] = Early treatment, 35 mg/kg i.p. days 3, 5, 7, 9, 11, 13
[7] = Early treatment, 50 mg/kg i.p. days 3, 5, 7, 9, 11, 13

## F[P-](F)(F)(F)(F)F.OC[P+](CO)(CO)[Cu-3]([P+](CO)(CO)CO)([P+](CO)(CO)CO)[P+](CO)(CO)CO [HydroCuP, [Cu(thp)4][PF6]]
[1]
  IC50 fold lower than CDDP: about 2.5
[1]; APH test, read-out: IC50 (μM) ± SD LoVo
  IC50: 23.3 ± 3.2 µM
[2]; Early treatment, 25 mg/kg i.p. days 3, 5, 7, 9, 11, 13
  Average tumor weight (mean ± S.D., g): 0.473 ± 0.12 g
[2]; Early treatment, 25 mg/kg i.p. days 3, 5, 7, 9, 11, 13, 25 mg/kg
  Inhibition of tumor growth (%): 26% and 25.86%
[2]; [6]
  Average tumor weight (mean ± S.D., g): 0.273 ± 0.04 g
  Inhibition of tumor growth (%): 57.21%
[2]; [7]
  Average tumor weight (mean ± S.D., g): 0.113 ± 0.04 g
  Inhibition of tumor growth (%): 82.28%
[2]; Early treatment, LLC-bearing C57BL mice, 15 days
  Body weight changes: did not induce significant body weight loss
[2]; Intermediate treatment, 30 mg/kg daily i.p. day 7-14
  Average tumor weight (mean ± S.D., g): 0.088 ± 0.03 g
[2]; Intermediate treatment, 30 mg/kg daily i.p. day 7-14, 30 mg/kg
  Inhibition of tumor growth (%): 82% and 82.37%
[2]; Intermediate treatment, 50 mg/kg daily i.p. day 7-14
  Average tumor weight (mean ± S.D., g): 0.071 ± 0.02 g
[2]; Intermediate treatment, 50 mg/kg daily i.p. day 7-14, 50 mg/kg
  Inhibition of tumor growth (%): 85% and 85.85%
[2]; Intermediate treatment, LLC-bearing C57BL mice
  Body weight loss: < 10%
[2]; Late treatment, 50 mg/kg (days 9-11) then 30 mg/kg (days 12-14) daily i.p.
  Average tumor weight (mean ± S.D., g): 0.024 ± 0.03 g
[2]; Late treatment, LLC-bearing C57BL mice
  Body weight changes / adverse effects: did not induce any adverse effects including significant body weight loss
[3]
  Water solubility: > 2.0 mg/mL
[4]
  Inhibition of tumor growth (decrease in final tumor volume): about 65%
[5]
  Inhibition of tumor growth (decrease in final tumor volume): about 65%
